Results from BindingDB's records for doi:10.1021/jm00088a013 (University of Kansas, 1992).

What follows are compounds tested against Adenosylhomocysteinase (Bos taurus) (assay: Inhibitory activity against bovine liver S-adenosyl-L-homocysteine hydrolase (AdoHcy) rate of inactivation by NpcA).

Compared with `CC1=C[C@@H](n2cnc3c(N)ncnc32)[C@H](O)[C@@H]1O`, `Nc1ncnc2c1ncn2[C@@H]1C=C[C@@H](O)[C@H]1O` is 190-fold lower in Ki: 9150 nM for the first, 49 nM for the second. The second binds more tightly here.

Going from `CC[C@H]1C[C@@H](n2cnc3c(N)ncnc32)[C@H](O)[C@@H]1O` to `C[C@H]1C[C@@H](n2cnc3c(N)ncnc32)[C@H](O)[C@@H]1O`, the Ki falls from 586 nM to 27 nM (22-fold).

Compared with `Nc1ncnc2c1ncn2[C@@H]1CC[C@@H](O)[C@H]1O` [(1R,2S,3R)-3-(6-amino-9H-purin-9-yl)cyclopentane-1,2-diol], `C[C@@H]1C[C@@H](n2cnc3c(N)ncnc32)[C@H](O)[C@@H]1O` is 420-fold higher in Ki: 12 nM for the first, 5020 nM for the second.

First: C=C[C@H]1C[C@@H](n2cnc3c(N)ncnc32)[C@H](O)[C@@H]1O
Second: Nc1ncnc2c1ncn2[C@@H]1C[C@H](c2ccccc2)[C@@H](O)[C@H]1O
The Ki of the first is 3100-fold lower: 22 nM for the first, 67600 nM for the second. The first binds more tightly here.
